# Results taken from PubChem BioAssay AID272 (DTP/NCI, 2004).
# Several values for one entry are separate records, joined by “and”; a condition that tells them apart may be missing. Identical values can stand only once. Records with an inconclusive call do not appear.
# Test system: Lewis lung carcinoma i.m., BDF1 mice, T/C %
# Experiment: NCI In Vivo Anticancer Drug Screen. Data for tumor model Lewis Lung Carcinoma (intramuscular) in B6D2F1 (BDF1) mice
# How it was run: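 Transplantable tumour model; readout survival or tumour size; value = treated (T) / vehicle control (C).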
structure (smiles),measurement,setting,value
COC1=C(N)C(=O)c2nc(-c3nc(C(=O)O)c(C)c(-c4ccc(OC)c(OC)c4O)c3N)ccc2C1=O,T/C,"endpoint: median survival time, dose: 0.02 mg/kg/injection, schedule: Q01DX011 (ip), vehicle: other, higher = longer survival",105 % of control
same,T/C,"endpoint: median survival time, dose: 0.02 mg/kg/injection, schedule: Q01DX011 (ip), vehicle: saline, higher = longer survival",92 % of control
same,T/C,"endpoint: median survival time, dose: 0.03 mg/kg/injection, schedule: Q01DX009 (ip), vehicle: saline, higher = longer survival",86 % of control
same,T/C,"endpoint: median survival time, dose: 0.03 mg/kg/injection, schedule: Q01DX011 (ip), vehicle: saline, higher = longer survival",96 % of control
same,T/C,"endpoint: median survival time, dose: 0.05 mg/kg/injection, schedule: Q01DX009 (ip), vehicle: saline, higher = longer survival",90 % of control
same,T/C,"endpoint: median survival time, dose: 0.05 mg/kg/injection, schedule: Q01DX011 (ip), vehicle: other, higher = longer survival",90 % of control
same,T/C,"endpoint: median survival time, dose: 0.06 mg/kg/injection, schedule: Q01DX011 (ip), vehicle: saline, higher = longer survival",94 % of control
same,T/C,"endpoint: median survival time, dose: 0.1 mg/kg/injection, schedule: Q01DX011 (ip), vehicle: other, higher = longer survival",100 % of control
same,T/C,"endpoint: median tumor weight (est.), dose: 0.02 mg/kg/injection, schedule: Q01DX011 (ip), vehicle: saline, higher = larger tumour",72 % of control
same,T/C,"endpoint: median tumor weight (est.), dose: 0.03 mg/kg/injection, schedule: Q01DX011 (ip), vehicle: saline, higher = larger tumour",81 % of control
same,T/C,"endpoint: median tumor weight (est.), dose: 0.06 mg/kg/injection, schedule: Q01DX011 (ip), vehicle: saline, higher = larger tumour",77 % of control
same,T/C,"endpoint: median tumor weight (est.), dose: 0.12 mg/kg/injection, schedule: Q01DX011 (ip), vehicle: saline, higher = larger tumour",55 % of control
O=[N+]([O-])c1cc(Cl)cc2c1nc(NCCO)c1ccccc12,T/C,"endpoint: mean tumor weight (est.), dose: 12.5 mg/kg/injection, schedule: Q01DX011 (ip), vehicle: saline with Tween-80, higher = larger tumour",70 % of control
same,T/C,"endpoint: mean tumor weight (est.), dose: 25.0 mg/kg/injection, schedule: Q01DX011 (ip), vehicle: saline with Tween-80, higher = larger tumour",43 % of control
same,T/C,"endpoint: median survival time, dose: 12.5 mg/kg/injection, schedule: Q01DX011 (ip), vehicle: saline with Tween-80, higher = longer survival",98 % of control
S=c1nc[nH]c2nc[nH]c12,T/C,"endpoint: mean tumor weight, dose: 10.0 mg/kg/injection, schedule: Q01DX011 (ip), vehicle: other, higher = larger tumour",77 % of control
same,T/C,"endpoint: mean tumor weight, dose: 20.0 mg/kg/injection, schedule: Q01DX011 (ip), vehicle: other, higher = larger tumour",77 % of control
same,T/C,"endpoint: mean tumor weight, dose: 40.0 mg/kg/injection, schedule: Q01DX011 (ip), vehicle: other, higher = larger tumour",89 % of control
same,T/C,"endpoint: mean tumor weight, dose: 65.0 mg/kg/injection, schedule: Q01DX011 (ip), vehicle: other, higher = larger tumour",58 % of control
same,T/C,"endpoint: median survival time, dose: 4.0 mg/kg/injection, schedule: Q01DX011 (ip), vehicle: other, higher = longer survival",91 % of control and 108 % of control
same,T/C,"endpoint: median survival time, dose: 8.0 mg/kg/injection, schedule: Q01DX011 (ip), vehicle: other, higher = longer survival",91 % of control and 111 % of control
same,T/C,"endpoint: median survival time, dose: 10.0 mg/kg/injection, schedule: Q01DX011 (ip), vehicle: other, higher = longer survival",110 % of control
same,T/C,"endpoint: median survival time, dose: 16.0 mg/kg/injection, schedule: Q01DX011 (ip), vehicle: other, higher = longer survival",93 % of control
same,T/C,"endpoint: median survival time, dose: 20.0 mg/kg/injection, schedule: Q01DX011 (ip), vehicle: other, higher = longer survival",112 % of control
same,T/C,"endpoint: median survival time, dose: 32.0 mg/kg/injection, schedule: Q01DX011 (ip), vehicle: other, higher = longer survival",98 % of control
Nc1nc(=S)c2ncn(C3CC(O)C(CO)O3)c2[nH]1 (stereo unspecified),T/C,"endpoint: mean tumor weight, dose: 3.12 mg/kg/injection, schedule: Q01DX011 (ip), vehicle: other, higher = larger tumour",120 % of control
same,T/C,"endpoint: mean tumor weight, dose: 6.25 mg/kg/injection, schedule: Q01DX011 (ip), vehicle: other, higher = larger tumour",112 % of control
same,T/C,"endpoint: mean tumor weight, dose: 12.5 mg/kg/injection, schedule: Q01DX011 (ip), vehicle: other, higher = larger tumour",120 % of control
same,T/C,"endpoint: mean tumor weight, dose: 25.0 mg/kg/injection, schedule: Q01DX011 (ip), vehicle: other, higher = larger tumour",69 % of control
same,T/C,"endpoint: median survival time, dose: 1.56 mg/kg/injection, schedule: Q01DX011 (ip), vehicle: other, higher = longer survival",112 % of control
same,T/C,"endpoint: median survival time, dose: 3.12 mg/kg/injection, schedule: Q01DX011 (ip), vehicle: other, higher = longer survival",95 % of control
same,T/C,"endpoint: median survival time, dose: 6.25 mg/kg/injection, schedule: Q01DX011 (ip), vehicle: other, higher = longer survival",102 % of control
same,T/C,"endpoint: median survival time, dose: 12.5 mg/kg/injection, schedule: Q01DX011 (ip), vehicle: other, higher = longer survival",112 % of control
same,T/C,"endpoint: median survival time, dose: 25.0 mg/kg/injection, schedule: Q01DX011 (ip), vehicle: other, higher = longer survival",112 % of control
Cc1[nH]c(=O)[nH]c(=O)c1N(CCF)CCCl,T/C,"endpoint: mean tumor weight (est.), dose: 5.0 mg/kg/injection, schedule: Q01DX011 (ip), vehicle: saline with Tween-80, higher = larger tumour",69 % of control
same,T/C,"endpoint: mean tumor weight (est.), dose: 5.0 mg/kg/injection, schedule: Q01DX011 (ip), vehicle: saline, higher = larger tumour",81 % of control
same,T/C,"endpoint: mean tumor weight (est.), dose: 10.0 mg/kg/injection, schedule: Q01DX011 (ip), vehicle: saline with Tween-80, higher = larger tumour",74 % of control
same,T/C,"endpoint: mean tumor weight (est.), dose: 10.0 mg/kg/injection, schedule: Q01DX011 (ip), vehicle: saline, higher = larger tumour",80 % of control
same,T/C,"endpoint: mean tumor weight (est.), dose: 20.0 mg/kg/injection, schedule: Q01DX011 (ip), vehicle: saline with Tween-80, higher = larger tumour",54 % of control
same,T/C,"endpoint: mean tumor weight (est.), dose: 20.0 mg/kg/injection, schedule: Q01DX011 (ip), vehicle: saline, higher = larger tumour",28 % of control
same,T/C,"endpoint: mean tumor weight (est.), dose: 40.0 mg/kg/injection, schedule: Q01DX011 (ip), vehicle: saline with Tween-80, higher = larger tumour",24 % of control
same,T/C,"endpoint: median survival time, dose: 5.0 mg/kg/injection, schedule: Q01DX011 (ip), vehicle: saline with Tween-80, higher = longer survival",101 % of control
same,T/C,"endpoint: median survival time, dose: 5.0 mg/kg/injection, schedule: Q01DX011 (ip), vehicle: saline, higher = longer survival",109 % of control
same,T/C,"endpoint: median survival time, dose: 10.0 mg/kg/injection, schedule: Q01DX011 (ip), vehicle: saline with Tween-80, higher = longer survival",105 % of control
same,T/C,"endpoint: median survival time, dose: 10.0 mg/kg/injection, schedule: Q01DX011 (ip), vehicle: saline, higher = longer survival",119 % of control
same,T/C,"endpoint: median survival time, dose: 20.0 mg/kg/injection, schedule: Q01DX011 (ip), vehicle: saline with Tween-80, higher = longer survival",100 % of control
